Several values for one entry are separate records, joined by “and”; a condition that tells them apart may be missing. Equal values may be shown once. Blank lines part the entries; values can stand above or below the compound they belong to.
Test system: 192522-019-R-J2-PDC complex tumor spheroid viability
Experiment: Anticancer human tumor 192522-019-R-J2-PDC patient-derived colon adenocarcinoma cell line growth inhibition [POLQ]
Conditions: for viability, T/C: stronger effect = lower value
Protocol: Multicellular complex tumor spheroid response to Polymerase (POL) inhibitors (novobiocin, ART-558, RP6685) in combination with a variety of drugs and investigational agents in selected tumor cell lines
The POL inhibitors (novobiocin, ART-558, and RP6685) were evaluated both individually and in combination with standard of care and investigational anticancer small molecules within a complex spheroid model of solid tumors. . Complex spheroids include a stromal component modeled by human endothelial cells (HUVEC) and fibroblasts modeled by human mesenchymal stem cells (MSCs). The concentration ranges selected for each drug and investigational agent were based upon clinically achievable concentrations if the clinical Cmax of the agent was known.
Compounds. The drugs and investigational agents: novobiocin (NSC847541), ART-558 (NSC835418), RP-6685 (NSC848927), peposertib (NSC802822), ceralasertib (NSC780249), elimusertib (NSC800525), camonsertib (NSC841442), AZD-1390 (NSC803789), olaparib (NSC753686), talazoparib (NSC767125), rucaparib (NSC756644), sotorasib (NSC818433), MRTX-1133 (NSC836407), SN-38 (NSC673596), topotecan (NSC609699), epotoside (NSC141540), doxorubicin (NSC123127), gemcitabine (NSC613327), 5-fluorouracil (NSC19893), paclitaxel (NSC125973), vemurafenib (NSC761431), MSA-2 (NSC828583), SN-011 (NSC837082), adavosertib (NSC754352), prexasertib (NSC758257), carboplatin (NSC241240) and oxaliplatin (NSC266046), were obtained from the National Cancer Institute (NCI) Developmental Therapeutics Program Chemical Repository (21). The FDA-approved anticancer drug set is available from the Developmental Therapeutics Program at https://dtp.cancer.gov/organization/dscb/obtaining/. […] The stock solutions were prepared in dimethyl sulfoxide (DMSO, Sigma-Aldrich, St. Louis, MO, cat. D2650), except for the platinum compounds which were prepared in saline (Quality Biological, Gaithersburg, MD, cat. 114-055-101), at 800-fold the tested concentration and stored at -70 degrees C prior to their use. All drugs and investigational agents were tested over a range starting from a high concentration at or near the clinical Cmax and decreasing in half-log increments. If the clinical Cmax for an agent had not been determined, the highest concentration tested was 10 microM, except for SN-38, which was tested at a high concentration of 1 microM.
Cell Culture. All cells were maintained in an incubator at 37 degrees C and 5% CO2 with 95% humidity. The PDC lines were cultured according to standard operating procedures established by the NCI PDMR (https://pdmr.cancer.gov). Table 3 of the manuscript, lists the cell lines along with the number of the three cell types plated to form the mct-spheroids and media for tumor cell growth. After thawing, all PDC lines, except 997537-175-T-J1-PDC and 415267-285-R-J2-PDC, were cultured in Matrigel-coated flasks prepared with a working solution of 1X Ham's F-12 nutrient mix, without supplementation (Thermo Fisher Scientific, cat. 11765054), 100 U/mL penicillin-streptomycin (Thermo Fisher Scientific, cat. 15140122), and 2.5% Matrigel (Corning Inc., Corning, NY, cat. 354248) for the first three passages. The two PDC lines 997537-175-T-J1-PDC and 415267-285-R-J2-PDC were cultured on uncoated flasks. The 857933-349-R-J2-PDC line was cultured in 6C/Colon 1B media containing advanced DMEM/F-12 (Thermo Fisher Scientific, cat. 12634028), 10 mM HEPES (Thermo Fisher Scientific, cat. 15630080), 1X GlutaMAX supplement (Thermo Fisher Scientific, cat. 35050061), 0.1 mg/mL primocin (InvivoGen, San Diego, CA, cat. ant-pm-2), 10% defined fetal bovine serum, heat inactivated (HyClone Laboratories Inc., Logan, UT, cat. SH30070.03HI), 50% L-WRN conditioned media (ATCC, cat. CRL-3276), 1.25 mM N-Acetyl-L-cysteine (Sigma-Aldrich, cat. A9165), 10 mM nicotinamide (Sigma-Aldrich, cat. N0636), 1X B-27 supplement (Thermo Fisher Scientific, cat. 17504044), 1X N-2 supplement (Thermo Fisher Scientific, cat. […]

[1] = curve of first compound, second compound 0.0316 µM
[2] = curve of first compound, second compound 0.1 µM
[3] = curve of first compound, second compound 0.316 µM
[4] = curve of first compound, second compound 1 µM
[5] = curve of first compound, second compound 3.16 µM
[6] = curve of first compound, second compound 10 µM
[7] = second compound 0.0316 µM, first compound 0.0316 µM
[8] = second compound 0.0316 µM, first compound 0.1 µM
[9] = second compound 0.0316 µM, first compound 0.316 µM
[10] = second compound 0.0316 µM, first compound 1 µM
[11] = second compound 0.0316 µM, first compound 3.16 µM
[12] = second compound 0.0316 µM, first compound 10 µM
[13] = second compound 0.1 µM, first compound 0.0316 µM
[14] = second compound 0.1 µM, first compound 0.1 µM
[15] = second compound 0.1 µM, first compound 0.316 µM
[16] = second compound 0.1 µM, first compound 1 µM
[17] = second compound 0.1 µM, first compound 3.16 µM
[18] = second compound 0.1 µM, first compound 10 µM
[19] = second compound 0.316 µM, first compound 0.0316 µM
[20] = second compound 0.316 µM, first compound 0.1 µM
[21] = second compound 0.316 µM, first compound 0.316 µM
[22] = second compound 0.316 µM, first compound 1 µM
[23] = second compound 0.316 µM, first compound 3.16 µM
[24] = second compound 0.316 µM, first compound 10 µM
[25] = second compound 1 µM, first compound 0.0316 µM
[26] = second compound 1 µM, first compound 0.1 µM
[27] = second compound 1 µM, first compound 0.316 µM
[28] = second compound 1 µM, first compound 1 µM
[29] = second compound 1 µM, first compound 3.16 µM
[30] = second compound 1 µM, first compound 10 µM
[31] = second compound 3.16 µM, first compound 0.0316 µM
[32] = second compound 3.16 µM, first compound 0.1 µM
[33] = second compound 3.16 µM, first compound 0.316 µM
[34] = second compound 3.16 µM, first compound 1 µM
[35] = second compound 3.16 µM, first compound 3.16 µM
[36] = second compound 3.16 µM, first compound 10 µM
[37] = second compound 10 µM, first compound 0.0316 µM
[38] = second compound 10 µM, first compound 0.1 µM
[39] = second compound 10 µM, first compound 0.316 µM
[40] = second compound 10 µM, first compound 1 µM
[41] = second compound 10 µM, first compound 3.16 µM
[42] = second compound 10 µM, first compound 10 µM
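Note: spheroids exposed to drugs for seven days before reading.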
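Throughout, for viability, T/C: 100% = DMSO vehicle control viability in luminescence.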

Structure (SMILES): CC1COCCN1c1cc(-c2ccnn2C)c2ccnc(-c3ccn[nH]3)c2n1 (stereo unspecified)
viability, T/C (compound 0.0316 µM): 97.7% and 93.8% and 106%
viability, T/C (compound 0.1 µM): 76% and 76.1% and 87.4%
viability, T/C (compound 0.316 µM): 43.4% and 45% and 54.1%
viability, T/C (compound 1 µM): 33.5% (2×) and 32.2%
viability, T/C (compound 3.16 µM): 35.1% and 40.1% and 41%
viability, T/C (compound 10 µM): 48% and 44.6% and 47.2%
IC50 (curve of compound): 246 nM and 256 nM and 400 nM

Structure (SMILES): O=C(c1cc(Cc2n[nH]c(=O)c3ccccc23)ccc1F)N1CCN(C(=O)C2CC2)CC1 + COC1C(OC(N)=O)C(O)C(Oc2ccc3c(O)c(NC(=O)c4ccc(O)c(CC=C(C)C)c4)c(=O)oc3c2C)OC1(C)C
IC50 [1]: > 10000 nM
IC50 [2]: > 10000 nM
IC50 [3]: > 10000 nM
IC50 [4]: > 10000 nM
IC50 [5]: > 10000 nM
IC50 [6]: > 10000 nM
viability, T/C [7]: 113%
viability, T/C [8]: 95.1%
viability, T/C [9]: 110%
viability, T/C [10]: 93%
viability, T/C [11]: 102%
viability, T/C [12]: 104%
viability, T/C [13]: 105%
viability, T/C [14]: 102%
viability, T/C [15]: 96.2%
viability, T/C [16]: 98.2%
viability, T/C [17]: 101%
viability, T/C [18]: 97.1%
viability, T/C [19]: 99%
viability, T/C [20]: 98.9%
viability, T/C [21]: 95.8%
viability, T/C [22]: 97%
viability, T/C [23]: 105%
viability, T/C [24]: 90.5%
viability, T/C [25]: 99.7%
viability, T/C [26]: 98.5%
viability, T/C [27]: 100%
viability, T/C [28]: 97.3%
viability, T/C [29]: 106%
viability, T/C [30]: 91.4%
viability, T/C [31]: 102%
viability, T/C [32]: 98.8%
viability, T/C [33]: 107%
viability, T/C [34]: 99.8%
viability, T/C [35]: 106%
viability, T/C [36]: 99.2%
viability, T/C [37]: 97.9%
viability, T/C [38]: 96.6%
viability, T/C [39]: 105%
viability, T/C [40]: 109%
viability, T/C [41]: 106%
viability, T/C [42]: 101%

Structure (SMILES): O=C(c1cc(Cc2n[nH]c(=O)c3ccccc23)ccc1F)N1CCN(C(=O)C2CC2)CC1
viability, T/C (compound 0.0316 µM): 99.6% and 98.7% and 100%
viability, T/C (compound 0.1 µM): 99% and 96.3% and 98.5%
viability, T/C (compound 0.316 µM): 96.2% and 100% and 101%
viability, T/C (compound 1 µM): 91.8% and 106% and 102%
viability, T/C (compound 3.16 µM): 97.4% and 116% and 113%
viability, T/C (compound 10 µM): 102% and 100% and 101%
IC50 (curve of compound): > 10000 nM

IC50 (compound alone, run of 10/31/2023): > 10000 nM
IC50 (compound alone, run of 11/06/2023): > 10000 nM
Structure (SMILES): Cc1cccc(N(C)C(=O)C2C(O)CCN2c2nc(C)cc(C(F)(F)F)c2C#N)c1 (stereo unspecified)
viability, T/C (compound 0.0316 µM): 107% [middle of 13 runs]
viability, T/C (compound 0.1 µM): 108% [middle of 13 runs]
viability, T/C (compound 0.316 µM): 110% [middle of 13 runs]
viability, T/C (compound 1 µM): 106% [middle of 13 runs]
viability, T/C (compound 3.16 µM): 106% [middle of 13 runs]
viability, T/C (compound 10 µM): 110% [middle of 13 runs]

Structure (SMILES): CC1COCCN1c1cc(C2(O)CC3CCC(C2)O3)c2cnn(-c3ccn[nH]3)c2n1 (stereo unspecified) + COC1C(OC(N)=O)C(O)C(Oc2ccc3c(O)c(NC(=O)c4ccc(O)c(CC=C(C)C)c4)c(=O)oc3c2C)OC1(C)C
IC50 [1]: 227 nM
IC50 [2]: 242 nM
IC50 [3]: 314 nM
IC50 [4]: 254 nM
IC50 [5]: 239 nM
IC50 [6]: 247 nM
viability, T/C [7]: 95.5%
viability, T/C [8]: 70.3%
viability, T/C [9]: 41.9%
viability, T/C [10]: 33.7%
viability, T/C [11]: 42.8%
viability, T/C [12]: 46.5%
viability, T/C [13]: 102%
viability, T/C [14]: 81.8%
viability, T/C [15]: 39.8%
viability, T/C [16]: 33%
viability, T/C [17]: 41.6%
viability, T/C [18]: 47%
viability, T/C [19]: 101%
viability, T/C [20]: 83.4%
viability, T/C [21]: 50.8%
viability, T/C [22]: 36.9%
viability, T/C [23]: 40.7%
viability, T/C [24]: 48.5%
viability, T/C [25]: 96.3%
viability, T/C [26]: 73.5%
viability, T/C [27]: 45%
viability, T/C [28]: 33.5%
viability, T/C [29]: 41.7%
viability, T/C [30]: 53.1%
viability, T/C [31]: 94%
viability, T/C [32]: 77.4%
viability, T/C [33]: 39.8%
viability, T/C [34]: 34.4%
viability, T/C [35]: 41.3%
viability, T/C [36]: 49.1%
viability, T/C [37]: 93.1%
viability, T/C [38]: 70.8%
viability, T/C [39]: 42.1%
viability, T/C [40]: 38.5%
viability, T/C [41]: 45.9%
viability, T/C [42]: 51%

Reference: PubChem BioAssay AID1963850 (Molecular Pharmacology Branch, DTP, NCI, 2024)
